In patent US8410153B2, “Naphthalene isoxazoline invertebrate pest control agents” (E.I. du Pont de Nemours and Company, priority 2007, dated 2013):

Columns and labels:
Assay type in all cases: in vivo
[1] = test system: diamondback moth (Plutella xylostella); experiment: Test A: control of diamondback moth on radish plant, foliar spray; details: sprayed at 50 ppm, held 6 days
From the text: For evaluating control of diamondback moth (Plutella xylostella) the test unit consisted of a small open container with a 12-14-day-old radish plant inside. This was pre-infested with about 50 neonate larvae that were dispensed into the test unit via corncob grits using a bazooka inoculator. The larvae moved onto the test plant after being dispensed into the test unit.
(§1) Test compounds were formulated using a solution containing 10% acetone, 90% water and 300 ppm X-77™ Spreader Lo-Foam Formula non-ionic surfactant containing alkylarylpolyoxyethylene, free fatty acids, glycols and isopropanol (Loveland Industries, Inc. Greeley, Colo., USA). The formulated compounds were applied in 1 mL of liquid through a SUJ2 atomizer nozzle with ⅛ JJ custom body (Spraying Systems Co. Wheaton, Ill., USA) positioned 1.27 cm (0.5 inches) above the top of each test unit. All experimental compounds in these tests were sprayed at 50 ppm, and the test was replicated three times. After spraying of the formulated test compound, each test unit was allowed to dry for 1 h and then a black, screened cap was placed on top. The test units were held for 6 days in a growth chamber at 25° C. and 70% relative humidity. Plant feeding damage was then visually assessed based on foliage consumed, and a pest mortality rating was also counted and calculated for each test unit.

[2] = test system: western flower thrips (Frankliniella occidentalis); experiment: Test E: control of western flower thrips on Soleil bean plant, contact and/or systemic; details: held 6 days
Description: as §1
For evaluating control of the western flower thrips (Frankliniella occidentalis) through contact and/or systemic means, the test unit consisted of a small open container with a 5-7-day-old Soleil Bean plant inside. Test compounds were formulated and sprayed as described for Test A. All experimental compounds in these tests were sprayed at 250 or 50 ppm as noted, and the test was replicated three times. After spraying, the test units were allowed to dry for 1 h, 22-27 adult thrips were added to each unit and then a black, screened cap was placed on top. The test units were held for 6 days at 25° C. and 45-55% relative humidity. A mortality rating was assessed along with a plant damage rating for each test unit.

[3] = test system: fall armyworm (Spodoptera frugiperda); experiment: Test B: control of fall armyworm on corn (maize) plant, foliar spray; details: sprayed at 50 ppm
Description: as §1
For evaluating control of fall armyworm (Spodoptera frugiperda) the test unit consisted of a small open container with a 4-5-day-old corn (maize) plant inside. This was pre-infested (using a core sampler) with 10-15 1-day-old larvae on a piece of insect diet. Test compounds were formulated and sprayed at 50 ppm as described for Test A and replicated three times. After spraying, the test units were maintained in a growth chamber and then the control efficacy was rated for each test unit as described for Test A.

Row | Compound | levels of control efficacy (20% or less feeding damage or 80% or more mortality) [1] | levels of control efficacy (20% or less feeding damage or 80% or more mortality) ([2]; sprayed at 50 ppm) | levels of control efficacy (20% or less feeding damage or 80% or more mortality) ([2]; sprayed at 250 ppm) | levels of control efficacy (20% or less feeding damage or 80% or more mortality) [3]
1 | CC(C)(NC(=O)c1ccc(C2=NOC(c3cc(Cl)cc(Cl)c3)(C(F)(F)F)C2)c2ccccc12)C(=O)NCC(F)(F)F (stereo not drawn) [Compound 4] | very good to excellent | very good to excellent | very good to excellent | very good to excellent
2 | O=C(CNC(=O)c1ccc(C2=NOC(c3cc(F)cc(C(F)(F)F)c3)(C(F)(F)F)C2)c2ccccc12)NCC(F)(F)F (racemic) [Compound 135] | very good to excellent | – | very good to excellent | very good to excellent
3 | CCSCCNC(=O)c1ccc(C2=NOC(c3cc(C(F)(F)F)cc(C(F)(F)F)c3)(C(F)(F)F)C2)c2ccccc12 (stereo not drawn) [Compound 92] | very good to excellent | very good to excellent | very good to excellent | very good to excellent
4 | CC(NC(=O)c1ccc(C2=NOC(c3cc(Cl)cc(C(F)(F)F)c3)(C(F)(F)F)C2)c2ccccc12)C(=O)NC(C)C(F)(F)F (stereo not drawn) [Compound 115] | very good to excellent | – | – | very good to excellent
5 | CCCNC(=O)CNC(=O)c1ccc(C2=NOC(c3cc(C(F)(F)F)cc(C(F)(F)F)c3)(C(F)(F)F)C2)c2ccccc12 (stereo not drawn) [Compound 101] | very good to excellent | very good to excellent | – | very good to excellent
6 | O=C(CNC(=O)c1ccc(C2=NOC(c3cc(Cl)cc(Cl)c3)(C(F)(F)F)C2)c2ccccc12)NCCCl (stereo not drawn) [Compound 10] | very good to excellent | – | – | very good to excellent
7 | CC(C)SCCCNC(=O)c1ccc(C2=NOC(c3cccc(C(F)(F)F)c3)(C(F)(F)F)C2)c2ccccc12 (racemic) [Compound 56] | very good to excellent | – | – | very good to excellent
8 | CC(O)(CNC(=O)c1ccc(C2=NOC(c3cccc(C(F)(F)F)c3)(C(F)(F)F)C2)c2ccccc12)C(F)(F)F (mixture of isomers) [Compound 45] | very good to excellent | – | – | very good to excellent
9 | C[S+]([O-])CCNC(=O)c1ccc(C2=NOC(c3cc(Cl)cc(C(F)(F)F)c3)(C(F)(F)F)C2)c2ccccc12 (stereo not drawn) [Compound 114] | very good to excellent | – | – | very good to excellent
10 | O=C(CNC(=O)c1ccc(C2=NOC(c3cc(Cl)cc(Cl)c3)(C(F)(F)F)C2)c2ccccc12)NCC(F)(F)C(F)(F)C(F)(F)F (stereo not drawn) [Compound 13] | very good to excellent | – | – | very good to excellent
11 | CC(NC(=O)CNC(=O)c1ccc(C2=NOC(c3cc(Cl)cc(C(F)(F)F)c3)(C(F)(F)F)C2)c2ccccc12)C(F)(F)F (stereo not drawn) [Compound 113] | very good to excellent | – | – | very good to excellent
12 | CC(C)SCCNC(=O)c1ccc(C2=NOC(c3cccc(C(F)(F)F)c3)(C(F)(F)F)C2)c2ccccc12 (racemic) [Compound 55] | very good to excellent | – | – | very good to excellent
13 | CSCCNC(=O)c1ccc(C2=NOC(c3cccc(OC(F)(F)F)c3)(C(F)(F)F)C2)c2ccccc12 (stereo not drawn) [Compound 71] | very good to excellent | – | – | very good to excellent
14 | O=C(CNC(=O)c1ccc(C2=NOC(c3cc(Cl)cc(Cl)c3)(C(F)(F)F)C2)c2ccccc12)NCC(F)(F)C(F)(F)F (stereo not drawn) [Compound 14] | very good to excellent | – | – | very good to excellent
15 | CC(NC(=O)CNC(=O)c1ccc(C2=NOC(c3cc(C(F)(F)F)cc(C(F)(F)F)c3)(C(F)(F)F)C2)c2ccccc12)C(F)(F)F (stereo not drawn) [Compound 91] | – | very good to excellent | – | very good to excellent
16 | CCC(CO)NC(=O)c1ccc(C2=NOC(c3cccc(C(F)(F)F)c3)(C(F)(F)F)C2)c2ccccc12 (mixture of isomers) [Compound 46] | very good to excellent | – | – | very good to excellent
17 | CNC(=O)C(C)NC(=O)c1ccc(C2=NOC(c3cc(Cl)cc(C(F)(F)F)c3)(C(F)(F)F)C2)c2ccccc12 (mixture of isomers) [Compound 125] | – | – | – | very good to excellent
18 | CC(CO)NC(=O)c1ccc(C2=NOC(c3cc(C(F)(F)F)cc(C(F)(F)F)c3)(C(F)(F)F)C2)c2ccccc12 (stereo not drawn) [Compound 68] | very good to excellent | – | – | very good to excellent
19 | CCNC(=O)C(C)NC(=O)c1ccc(C2=NOC(c3cc(Cl)cc(C(F)(F)F)c3)(C(F)(F)F)C2)c2ccccc12 (mixture of isomers) [Compound 126] | – | – | – | very good to excellent
20 | CCC(O)CNC(=O)c1ccc(C2=NOC(c3cccc(C(F)(F)F)c3)(C(F)(F)F)C2)c2ccccc12 (stereo not drawn) [Compound 64] | very good to excellent | – | – | very good to excellent
21 | O=C(NCO)c1ccc(C2=NOC(c3cc(Cl)cc(Cl)c3)(C(F)(F)F)C2)c2ccccc12 (stereo not drawn) [Compound 82] | very good to excellent | – | – | very good to excellent
22 | CNC(=O)CNC(=O)c1ccc(C2=NOC(c3cc(Cl)cc(C(F)(F)F)c3)(C(F)(F)F)C2)c2ccccc12 (stereo not drawn) [Compound 116] | very good to excellent | – | – | very good to excellent
23 | O=C(CNC(=O)c1ccc(C2=NOC(c3cccc(OC(F)(F)F)c3)(C(F)(F)F)C2)c2ccccc12)NCC(F)(F)F (stereo not drawn) [Compound 72] | very good to excellent | – | – | very good to excellent
24 | CC(NC(=O)c1ccc(C2=NOC(c3cc(Cl)cc(C(F)(F)F)c3)(C(F)(F)F)C2)c2ccccc12)C(=O)NCC(F)(F)F (mixture of isomers) [Compound 127] | – | – | – | very good to excellent
25 | CC(C)CNC(=O)C(C)NC(=O)c1ccc(C2=NOC(c3cc(Cl)cc(C(F)(F)F)c3)(C(F)(F)F)C2)c2ccccc12 (mixture of isomers) [Compound 130] | – | – | – | very good to excellent
26 | O=C(CNC(=O)c1ccc(C2=NOC(c3cccc(Br)c3)(C(F)(F)F)C2)c2ccccc12)NCC(F)(F)F (stereo not drawn) [Compound 70] | very good to excellent | – | – | very good to excellent
27 | CC(C)NC(=O)C(C)NC(=O)c1ccc(C2=NOC(c3cc(Cl)cc(C(F)(F)F)c3)(C(F)(F)F)C2)c2ccccc12 (mixture of isomers) [Compound 128] | – | – | – | very good to excellent
28 | O=C(NCCO)c1ccc(C2=NOC(c3cc(C(F)(F)F)cc(C(F)(F)F)c3)(C(F)(F)F)C2)c2ccccc12 (stereo not drawn) [Compound 69] | very good to excellent | – | – | very good to excellent
